Counter-ions that a name gives are not always drawn. Like-named read-outs stand apart in the source and are kept apart here.
What was measured:
SUDHL10 [1] = test: Induction of caspase-3/7 activity (Caspase-Glo 3/7), SUDHL10; assay type: cell-based; details: caspase-3/7 induction, SUDHL10 cells, 3 h treatment, median
Procedure, shortened: (§1)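 Caspase-Glo 3/7 luminescence measured after 3 h compound exposure at 37 °C in SUDHL10 and SUDHL5 cells. EC50 values come from background-corrected signals, with curve bottom set to 1 and plateau set to maximal induction by the reference compound.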

SUDHL5 [2] = test: Induction of caspase-3/7 activity (Caspase-Glo 3/7), SUDHL5; assay type: cell-based; details: caspase-3/7 induction, SUDHL5 cells, 3 h treatment, median
Procedure, shortened: as §1

A2780 = test: Anti-proliferative effect (CellTiter-Glo, 72 h), A2780; assay type: cell-based; details: A2780 cells, median, read-out: IC50 antiproliferation assay A2780 [M] (median)
Procedure, shortened: (§2)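 CellTiter-Glo luminescence readout of viability, taken on a time-zero plate at day 0 and on treated plates after 72 h incubation at 37 °C in a humidified incubator. Reagent incubation 10 min before reading.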

MV-4-11 = test: Anti-proliferative effect (CellTiter-Glo, 72 h), MV-4-11; assay type: cell-based; details: MV-4-11 cells, median, read-out: IC50 antiproliferation assay MV-4-11 [M] (median)
Procedure, shortened: as §2

SUDHL10 [3] = test: Anti-proliferative effect (CellTiter-Glo, 72 h), SUDHL10; assay type: cell-based; details: SUDHL10 cells, antiproliferation, 72 h incubation, median, read-out: Antiproli SUDHL10 [M] (median)
Procedure, shortened: as §2

SUDHL5 [4] = test: Anti-proliferative effect (CellTiter-Glo, 72 h), SUDHL5; assay type: cell-based; details: SUDHL5 cells, antiproliferation, 72 h incubation, median, read-out: Antiproli SUDHL5 [M] (median)
Procedure, shortened: as §2

SUDHL5 [5] = test: Induction of cytotoxicity (CellTiter-Glo, 5 h), SUDHL5
SUDHL10 [6] = test: Induction of cytotoxicity (CellTiter-Glo, 5 h), SUDHL10
OPM2 = test: Anti-proliferative effect (CellTiter-Glo, 72 h), OPM2; assay type: cell-based; details: OPM2 cells, median, read-out: IC50 antiproliferation assay OPM2 [M] (median)
Procedure, shortened: as §2

MCL-1 = MCL-1 (Homo sapiens, UniProt Q07820); test: Protein-protein interaction assay MCL-1/Noxa BH3 peptide (MCL-1 assay), TR-FRET; assay type: binding; details: MBP-MCL-1 / Noxa BH3-derived peptide, median
Procedure, shortened: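 MBP-MCL-1 (1 nM final) was preincubated 10 min at 22 °C with compounds (11 concentrations, 0.1 nM–20 μM, duplicates) in Tris pH 7 buffer with NaCl, KF, Tween-20, DTT and BGG. After 1 h at 22 °C in the dark plus overnight at 4 °C, anti-MBP Eu-cryptate/streptavidin-XL665 TR-FRET was read; IC50 came from a 4-parameter fit.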

[7] = Homo sapiens, SU-DHL-5, 5 h, read-out: Cytotox SUDHL5 [M] (median), SUDHL5 cells, cytotoxicity induction, CellTiter-Glo, 5 h incubation, median
[8] = Homo sapiens, SU-DHL10, 5 h, read-out: Cytotox SUDHL10 [M] (median), SUDHL10 cells, cytotoxicity induction, CellTiter-Glo, 5 h incubation, median
[9] = read-out: Cytotox SUDHL5 [M] (median), SUDHL5 cells, cytotoxicity induction, CellTiter-Glo, 5 h incubation, median
[10] = read-out: Cytotox SUDHL10 [M] (median), SUDHL10 cells, cytotoxicity induction, CellTiter-Glo, 5 h incubation, median

Sequence of MCL-1 (Q07820 whole entry): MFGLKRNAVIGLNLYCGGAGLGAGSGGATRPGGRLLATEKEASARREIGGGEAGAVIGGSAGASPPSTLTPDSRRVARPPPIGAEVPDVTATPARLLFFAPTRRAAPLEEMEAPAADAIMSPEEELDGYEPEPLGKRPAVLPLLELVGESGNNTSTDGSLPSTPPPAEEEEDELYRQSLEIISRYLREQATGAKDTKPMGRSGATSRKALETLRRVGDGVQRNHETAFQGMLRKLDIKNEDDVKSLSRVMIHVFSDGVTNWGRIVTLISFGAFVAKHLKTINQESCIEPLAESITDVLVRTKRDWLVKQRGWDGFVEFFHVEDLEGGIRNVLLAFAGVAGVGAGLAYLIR

Compound	EC50 (SUDHL10 [1]; Homo sapiens, SU-DHL10, 3 h)	EC50 (SUDHL5 [2]; Homo sapiens, SU-DHL-5, 3 h)	IC50 (A2780; Homo sapiens, A2780, 72 h)	IC50 (MV-4-11; Homo sapiens, MV4-11, 72 h)	IC50 (SUDHL10 [3]; Homo sapiens, SU-DHL10, 72 h)	IC50 (SUDHL5 [4]; Homo sapiens, SU-DHL-5, 72 h)	IC50 (MCL-1)	EC50 (SUDHL10 [1])	EC50 (SUDHL5 [2])	IC50 (A2780)	IC50 (MV-4-11)	IC50 (SUDHL10 [3])	IC50 (SUDHL5 [4])	IC50 (SUDHL5 [5]; [7])	IC50 (SUDHL10 [6]; [8])	IC50 (OPM2; Homo sapiens, OPM-2, 72 h)	IC50 (SUDHL5 [5]; [9])	IC50 (SUDHL10 [6]; [10])	IC50 (OPM2)
Cn1nc(COc2ccc(N3CCOCC3)cc2)c2c1COCC=CCn1c(C(=O)O)c(CCCOc3cccc4ccccc34)c3cccc-2c31 (single isomer, unassigned; enantiomer 1) [Example 119, (+)-E/Z)-1-methyl-3-{[4-(morpholin-4-yl)phenoxy]methyl}-7-[3-(naphthalen-1-yloxy)propyl]-1,10,13,15-tetrahydropyrazolo[4′,3′:9,10][1,6]oxazacycloundecino[8,7,6-hi]indole-8-carboxylic Acid (Enantiomer 1)]	22.5 µM	19.5 µM	1.21e-05 M	8.87e-06 M	2e-05 M	1.35e-05 M	0.0213 µM	–	–	–	–	–	–	2.85e-05 M	> 3.3e-05 M	6.62e-06 M	–	–	–
Cn1nc(COc2ccc(N3CCN(S(C)(=O)=O)CC3)cc2)c2c1COCCCCn1c(C(=O)O)c(CCCOc3cccc4ccccc34)c3cccc-2c31 (single isomer, unassigned; enantiomer 1) [Example 1-9, 1-methyl-3-({4-[4-(methylsulfonyl)piperazin-1-yl]phenoxy}methyl)-7-[3-(naphthalen-1-yloxy)propyl]-1,10,11,12,13,15-hexahydropyrazolo[4′,3′:9,10][1,6]oxazacycloundecino[8,7,6-hi]indole-8-carboxylic Acid (Enantiomer 1)]	–	–	–	–	–	–	0.0242 µM	14.7 µM	12.5 µM	> 3.3e-05 M	8.59e-06 M	1.17e-05 M	3.37e-06 M	–	–	–	9.46e-06 M	9.08e-06 M	> 3.3e-05 M
CN(C)S(=O)(=O)N1CCN(c2ccc(OCc3nn(C)c4c3-c3cccc5c(CCCOc6cccc7ccccc67)c(C(=O)O)n(c35)CCCCCC4)cc2)CC1 (single isomer, unassigned; enantiomer 1) [Example 1-40, 3-({4-[4-(dimethylsulfamoyl)piperazin-1-yl]phenoxy}methyl)-1-methyl-7-[3-(naphthalen-1-yloxy)propyl]-10,11,12,13,14,15-hexahydro-1H-pyrazolo[4′,3′:4,5]azacycloundecino[3,2,1-hi]indole-8-carboxylic acid-N-ethylethanamine Salt (Enantiomer 1)]	–	–	3.95e-06 M	4.94e-06 M	1.93e-06 M	5.8e-06 M	0.0368 µM	> 33 µM	21.6 µM	–	–	–	–	–	–	–	1.69e-05 M	2.3e-05 M	5.38e-06 M
Cn1nc(COc2ccc(S(C)(=O)=O)cc2)c2c1COCC=CCn1c(C(=O)O)c(CCCOc3cccc4ccccc34)c3cccc-2c31 (single isomer, unassigned) [Example 1-52, (E/Z)-1-methy-3-{[4-(methylsulfonyl)phenoxy]methyl}-7-[3-(naphthalen-1-yloxy)propyl]-1,10,13,15-tetrahydropyrazolo[4′,3′:9,10][1,6]oxazacycloundecino[8,7,6-hi]indole-8-carboxylic Acid]	–	–	2.26e-05 M	7.75e-06 M	7.55e-06 M	1.25e-05 M	0.281 µM	> 33 µM	31 µM	–	–	–	–	–	–	3.2e-05 M	3.15e-05 M	2.71e-05 M	–
Cn1nc(COc2ccc(N3CCOCC3)cc2)c2c1COCC=CCn1c(C(=O)O)c(CCCOc3cccc4ccccc34)c3cccc-2c31 (single isomer, unassigned; enantiomer 2) [Example 120, (−)-(E/Z)-1-methyl-3-{[4-(morpholin-4-yl)phenoxy]methyl}-7-[3-(naphthalen-1-yloxy)propyl]-1,10,13,15-tetrahydropyrazolo[4′,3′:9,10][1,6]oxazacycloundecino[8,7,6-hi]indole-8-carboxylic Acid (Enantiomer 2)]	–	–	–	–	–	–	0.0272 µM	18.4 µM	31.4 µM	1.11e-05 M	1.13e-05 M	1.4e-05 M	1.08e-05 M	–	–	–	3.21e-05 M	> 3.3e-05 M	4.36e-06 M

Compounds with a lower IC50 (MCL-1), results first:

EC50 (SUDHL10 [1]; Homo sapiens, SU-DHL10, 3 h)	EC50 (SUDHL5 [2]; Homo sapiens, SU-DHL-5, 3 h)	IC50 (A2780; Homo sapiens, A2780, 72 h)	IC50 (MV-4-11; Homo sapiens, MV4-11, 72 h)	IC50 (SUDHL10 [3]; Homo sapiens, SU-DHL10, 72 h)	IC50 (SUDHL5 [4]; Homo sapiens, SU-DHL-5, 72 h)	IC50 (MCL-1)	EC50 (SUDHL10 [1])	EC50 (SUDHL5 [2])	IC50 (A2780)	IC50 (MV-4-11)	IC50 (SUDHL10 [3])	IC50 (SUDHL5 [4])	Compound	IC50 (SUDHL5 [5]; [7])	IC50 (SUDHL10 [6]; [8])	IC50 (OPM2; Homo sapiens, OPM-2, 72 h)	IC50 (SUDHL5 [5]; [9])	IC50 (SUDHL10 [6]; [10])	IC50 (OPM2)
32.8 µM	17.6 µM	1.51e-05 M	6.84e-06 M	–	1.62e-05 M	0.0186 µM	–	–	–	–	4.25e-06 M	–	Cn1nc(CN2CCOCC2)c2c1COCC=CCn1c(C(=O)O)c(CCCOc3cccc4ccccc34)c3cccc-2c31 (single isomer, unassigned; enantiomer 1) [Example 133, (E/Z)-1-methyl-3-(morpholin-4-ylmethyl)-7-[3-(naphthalen-1-yloxy)propyl]-1,10,13,15-tetrahydropyrazolo[4′,3′:9,10][1,6]oxazacycloundecino[8,7,6-hi]indole-8-carboxylic acid-N-ethylethanamine Salt (Enantiomer 1)]	1.84e-05 M	2.95e-05 M	–	–	–	–
25.3 µM	–	> 3.3e-05 M	4.1e-06 M	1.1e-05 M	7.61e-06 M	0.00357 µM	–	6.63 µM	–	–	–	–	Cc1nn(C)c2c1-c1cccc3c(CCCOc4cccc5ccccc45)c(C(=O)O)n(c13)CCCOC2 (single isomer, unassigned; enantiomer 1) [Example 044, 9,11-dimethyl-1-[3-(naphthalen-1-yloxy)propyl]-5,6,8,9-tetrahydro-4H-pyrazolo[4′,3′:8,9][1,5]oxazecino[7,6,5-h]indole-2-carboxylic acid-N-ethylethanamine Salt (Enantiomer 1)]	–	2.34e-05 M	–	6.01e-06 M	–	–
–	–	–	2.8e-06 M	–	–	0.0021 µM	7.45 µM	1.61 µM	2.21e-05 M	–	1.78e-06 M	2.19e-06 M	CCc1c2c(nn1CCN1CCOCC1)COCCCCn1c(C(=O)O)c(CCCOc3cccc4ccccc34)c3cccc-2c31 (single isomer, unassigned; enantiomer 2) [Example 203, 3-ethyl-2-[2-(morpholin-4-yl)ethyl]-7-[3-(naphthalen-1-yloxy)propyl]-2,10,11,12,13,15-hexahydropyrazolo[4′,3′:9,10][1,6]oxazacycloundecino[8,7,6-hi]indole-8-carboxylic Acid (Enantiomer 2)]	–	–	–	1.32e-06 M	4.31e-06 M	–
0.652 µM	0.405 µM	4.31e-06 M	2.44e-06 M	9.28e-07 M	7.61e-07 M	0.00175 µM	–	–	–	–	–	–	Cn1nc(COc2ccc(N3CCN(S(=O)(=O)C4CC4)CC3)cc2)c2c1COCCCCn1c(C(=O)O)c(CCCOc3cccc4ccccc34)c3cccc-2c31 (racemic) [Example 1-11, (rac)-3-({4-[4-(cyclopropylsulfonyl)piperazin-1-yl]phenoxy}methyl)-1-methyl-7-[3-(naphthalen-1-yloxy)propyl]-110,11,12,13,15-hexahydropyrazolo[4′,3′:9,10][1,6]oxazacycloundecino[8,7,6-hi]indole-8-carboxylic Acid]	8.89e-07 M	1.03e-06 M	1.51e-06 M	–	–	–
–	–	–	2.58e-06 M	–	3.26e-06 M	0.00119 µM	5.26 µM	2.64 µM	2.38e-05 M	–	–	–	COCC(=O)N1CCN(c2ccc(OCc3nn(C)c4c3-c3cccc5c(CCCOc6cccc7ccccc67)c(C(=O)O)n(c35)CCCCOC4)cc2)CC1 (single isomer, unassigned; enantiomer 2) [Example 1-29, 3-({4-[4-(methoxyacetyl)piperazin-1-yl]phenoxy}methyl)-1-methyl-7-[3-(naphthalen-1-yloxy)propyl]-1,10,11,12,13,15-hexahydropyrazolo[4′,3′:9,10][1,6]oxazacycloundecino[8,7,6-hi]indole-8-carboxylic Acid (Enantiomer 2)]	–	–	–	3.29e-06 M	6.87e-06 M	4.53e-06 M
